Converted amounts (≈) assume the structure as drawn.
Experiments:
[1] = design: method as in PMID 32164731, PMID 33531521, PMID 31310876, PMID 25974386; conditions: cited from earlier work
[2] = test system: HUVEC normal cells; test: Apoptosis, Annexin V-FITC/PI flow cytometry; format: cell-based, human; conditions: 50 μg/mL, 24 h; untreated approximately 7–8%
Protocol: (§1) SK-MEL-24 (human melanoma cell line—HTB-71) and HUVEC (human primary umbilical vein endothelial cells—CRL-1730) were purchased from the American Type Culture Collection (ATCC). HUVEC normal cells were used as a reference. Adherent cells were maintained in culture in DMEM/F12 medium added by 2 mM L-glutamine, 10% fetal bovine serum, 100 units/mL penicillin, 100 μg/mL streptomycin, and incubated at 37 °C in 5% CO2 humidified atmosphere. After 24 h, adherent cells were treated with different concentrations of the compounds for different timeframes. A 5-FU conventional oncology drug used in cancer treatments can be used as a positive control of the experiments. Cell treatments of compounds were carried out using concentrations of 200, 100, 50, 25, 12.5, 6.25, 3.125, and 1.56 μg/mL of the drug. Then, cells were detached with a nonenzymatic PBS/1 mM EDTA solution washed twice in PBS.
(§2) The apoptosis assay was performed according to the manufacturer’s instructions using the Annexin V-FITC kit from BD Biosciences. Cells treated and untreated with the experimental compound were resuspended in a cold binding buffer. The percentages of apoptotic cells were determined by double staining with Annexin V-FITC/PI. In each tube was added 400 μL of Annexin V binding buffer and the 5000 cells/sample for 15 min in the dark at room temperature. The cells were analyzed using a FACS CantoII flow-cytometer (Becton Dickinson—BD). The analysis was performed using DIVA 6.2 software to discriminate viable cells (FITC-PI-) from necrotic cells (FITC+PI+) and early apoptosis (FITC+PI-) from late apoptosis.

[3] = test system: SK-MEL-24 tumor cells; test: Apoptosis, Annexin V-FITC/PI flow cytometry; format: cell-based, human; conditions: 5 and 50 μg/mL
Protocol: as §1, §2

[4] = Thermogravimetric analysis; format: physicochemical; conditions: TGA, 10 °C/min, nitrogen
Protocol: Thermogravimetric analysis (TGA) was performed for NLC-DTX, NLC-Blank, and their components (DTX, GC, G43/01, MCT, S-PC-3, T80, mannitol) using thermal analyzer TGA Q5000IR (TA Instruments, New Castle, DE, USA). TGA curves were generated with a heating rate of 10 °C/min over a temperature range from room temperature to 700 °C, under a dynamic nitrogen atmosphere (50 mL/min). The samples were placed in a platinum pan (100 µL).

[5] = test system: HUVEC normal cells; test: MTS cytotoxicity assay; format: cell-based, human
Protocol: as §1, with “Cell treatments of compounds were carried out using concentrations of 200, 100, 50, 25, 12.5, 6.25, 3.125, and 1.56 μg/mL of the drug. Then, cells were detached with a nonenzymatic PBS/1 mM EDTA solution washed twice in PBS.” left out
All assays were performed in triplicate in 96-well microtiter plates with flat bottom (Falcon), using CellTiter 96 Aqueous One Solution Cell Proliferation Assay (Promega, Madison, WI, USA), an MTS-based colorimetric assay. […] The reduction of the tetrazolium compound to formazan was spectrophotometrically measured at λ = 492 nm using a Dynex plate reader (DYNEX Technologies MRS, Chantilly, VA, USA). The percentage of viability compared to untreated cells (considered 100% viable) was calculated with the formula:(2) Cell viability=absorbance of treated cells−absorbance of culture medium/absorbance of untreated cells−absorbance of culture medium×100 […]

[6] = design: method as in PMID 32164731, PMID 25974386; conditions: cited from earlier work
[7] = test system: HUVEC normal cells; test: Cell cycle analysis by flow cytometry; format: cell-based, human
Protocol: as §1
(§3) In this experiment, 5 × 10^5 cells that had been previously fixed were washed and resuspended in PBS. The CycleTEST PLUS DNA Reagent kit from BD Biosciences was used according to the manufacturer’s protocol for the assay. The probes were kept in the dark and at 4 °C until data acquisition by flow cytometry (Becton Dickinson—BD) using a FACSCantoII flow cytometer from BD. The ModFIT v3.2 software was used to analyze the data and estimate the DNA index (DI) and progression through cell cycle phases.

[8] = test system: SK-MEL-24 tumor cells; test: Cell cycle analysis by flow cytometry; format: cell-based, human
Protocol: as §1, §3

[9] = Docetaxel equilibrium solubility in molten solid lipids; format: physicochemical; conditions: melted state at 75 °C, 24 h
Protocol: To assess the solubility of the active substance, various solid lipids were examined (such as tetradecanoic acid, decanoic acid, palmitic acid, stearic acid, GMS-SE, GMS, sorbitan monostearate, cetyl palmitate, Gelucire® 43/01, and Suppocire® NAS 50). Initially, 500 mg of each solid lipid was accurately weighed and melted. Subsequently, excess docetaxel was added to the molten lipid. The drug–lipid mixture was kept at a constant temperature of 75 °C, thus maintaining a minimum of 10 °C above the melting point of the solid lipids. The mixture was stirred at 750 rpm for 24 h. Using preheated utensils, a predetermined amount of supernatant was carefully transferred into a 5 mL volumetric flask. The transfer was done by weight to ensure precision and consistency in sample size across all tests. The transferred sample was dissolved using a suitable solvent selected based on its compatibility with both the lipid and docetaxel. Choices like methanol, dichloromethane, DMSO, or their mixtures were used depending on their efficacy in dissolving the sample thoroughly. […]
For the quantitative analysis of docetaxel, a Jasco LC-4000 Series HPLC system (JASCO Corporation, Tokyo, Japan) containing a quaternary pump (model PU-4180), an autosampler (model AS-4150), a DAD detector (model MD-4010), and a column thermostat (model CO-4061) was employed. […]

In the case of `CC(=O)O[C@@]12CO[C@@H]1C[C@H](O)[C@@]1(C)C(=O)[C@H](O)C3=C(C)[C@@H](OC(=O)[C@H](O)[C@@H](NC(=O)OC(C)(C)C)c4ccccc4)C[C@@](O)([C@@H](OC(=O)c4ccccc4)[C@H]21)C3(C)C` [DTX, Docetaxel], the water solubility [1] is given as 4.93 µg/mL (≈ 6.1 µM), the apoptosis [2] is given as 12.3% and the effect on apoptosis ([3]; 24 and 48 h, untreated approximately 4–5%) is given as “sustained increases in apoptosis”. For the same compound, the increase in apoptosis ([3]; after 48 h, vs untreated) was “two-fold”, the thermal stability limit [4] was “approximately 120 °C” and the IC50 ([5]; Homo sapiens, HUVEC, tested range 1.56–200 μg/mL, read-out: IC50 on HUVECs) was under 1.56 µg/mL. The “cell death (reduction in HUVEC viability)” value ([5]; all tested concentrations (1.56–200 μg/mL), after 24 and 48 h) was “over 50%”, the logp value [6] was 4.1 and the cell cycle alterations ([7]; 50 μg/mL, 24 h) was “G2/M arrest”. The cell cycle alterations ([7]; 50 μg/mL, 48 h) was “a decrease in the G1 population, and an increase in the S phase”, the cell cycle alterations ([7]; 24 h, concentration not given) was “a decrease in the S phase accompanied by an increase in the G2 phase” and the cell cycle alterations ([7]; 48 h, independent of the concentration) was “an increase in the S phase and a significant decrease in the G1 phase”. For the same compound, the cell cycle distribution ([8]; 5 μg/mL, 24 h and 48 h) was “decreases the G1 phase and increases the G2 phase”, the cell cycle distribution ([8]; 50 μg/mL, 24 h) was “a decrease in the S phase accompanied by an increase in the G2 phase” and the cell cycle distribution ([8]; 50 μg/mL, 48 h) was “a significant decrease in the S phase”. For the same compound, the “docetaxel solubility in Gelucire 43/01” value [9] was 10 mg/g and the “docetaxel solubility in tetradecanoic acid” value [9] was 16 mg/g.

From PMC11279931, “Development and Evaluation of Docetaxel-Loaded Nanostructured Lipid Carriers for Skin Cancer Therapy” (Pharmaceutics, 2024)
